Source: patent US20240366652A1, “OSTEOARTHRITIS PROGRESSION INHIBITOR AND PROGRESSION INHIBITION KIT” (KYUSHU UNIVERSITY, NATIONAL UNIVERSITY CORPORATION, priority 2021, published 2024)

Legend:
[1] = test system: IL6; test: IL6 mRNA expression in LPS-stimulated human OA cartilage cells (quantitative real-time PCR); format: cell-based; conditions: Amlexanox 100 μM and/or hyaluronic acid 1 mg/mL, 48 hours, LPS 10 μg/mL 6 hours, GAPDH internal standard
Description: (§1) Human cartilage cells were isolated and cultured from an excised cartilage fragment that is usually discarded after artificial knee joint replacement surgery. All donors provided consent to participate in the clinical research approved by the Ethics Review Committee. Due consideration was given to personal information of all donors in handling. Donor's knee joints were OA grade (Kellgren-lawrence) III to IV on X-rays.
(§2) Amlexanox (concentration in medium: 100 μM) and hyaluronic acid (concentration in medium: 1 mg/mL, weight-average molecular weight: 500,000 or more and 1,490,000 or less) were added to human OA cartilage cells and incubated for 48 hours. As a control, those that had been incubated for 48 hours without any administration, and those that were administered with Amlexanox (concentration in medium: 100 μM) and hyaluronic acid (concentration in medium: 1 mg/mL, weight-average molecular weight: 500,000 or more and 1,490,000 or less) and incubated for 48 hours were also prepared.
(§3) Human OA cartilage cells into which Amlexanox and hyaluronic acid were added were stimulated with lipopolysaccharide (LPS) (concentration in medium: 10 μg/mL) and incubated for 6 hours. Thereafter, mRNA was recovered from the above cells. After reverse transcription, quantitative real-time PCR was performed using LightCycler 2.0 system (Roche). GAPDH was used as an internal standard.

[2] = test system: MMP13; test: MMP13 mRNA expression in LPS-stimulated human OA cartilage cells (quantitative real-time PCR); format: cell-based; conditions: Amlexanox 100 μM and/or hyaluronic acid 1 mg/mL, 48 hours, LPS 10 μg/mL 6 hours, GAPDH internal standard
Description: as §1, §2, §3

[3] = test system: ADAMTS4; test: ADAMTS4 mRNA expression in LPS-stimulated human OA cartilage cells (quantitative real-time PCR); format: cell-based; conditions: Amlexanox 100 μM and/or hyaluronic acid 1 mg/mL, 48 hours, LPS 10 μg/mL 6 hours, GAPDH internal standard
Description: as §1, §2, §3

[4] = test system: OA-induced mice (DMM model); test: Cartilage degeneration in OA-induced mice (DMM model), OARSI histopathological score after intraarticular administration; format: in vivo; conditions: intraarticular 10 μL every 5 days for 8 weeks, Amlexanox 100 μM, hyaluronic acid 10 mg/mL, versus physiological saline group, 8 weeks after surgery
Description: OA was induced in 12-week-old male mice (wild type mice and GRK5KO mouse) by removing the ligament, which connects and secures the medial meniscus to the tibia, to cause the knee joint instability (DMM model) (hereinafter, referred to as a “DMM group” in some cases). In addition, as a control, mice subjected to a sham operation by the same method without removing the ligament were also prepared (hereinafter, referred to as a “sham group” in some cases). Subsequently, immediately after the OA induction, four groups were classified as follows: a group administered with physiological saline (10 μL) every 5 days for 8 weeks; a group administered with a hyaluronic acid solution (10 mg/mL, 10 μL); a group administered with an Amlexanox solution (100 μM, 10 μL), a group administered with a mixed solution (10 μL) of
Amlexanox (100 μM) and hyaluronic acid (10 mg/mL) (see FIG. 2A). Knee joint tissue sections of each group at a time point of 8 weeks after OA induction surgery were stained with safranin O. The results are shown in FIG. 2B (staining image).
In addition, the severity degree of OA was quantified by evaluating the stained sections based on histopathological grade recommended by OARSI.
Using the same method as in Example 2, a mixed solution of Amlexanox (100 μM) and hyaluronic acid (10 mg/mL) was administered to OA-induced mice every […] for 8 weeks (see FIG. 3A). […]

[5] = after intraarticular administration; cited from earlier work
[6] = test system: GRK5; conditions: reported in Reference 2; cited from earlier work

With CC(C)c1ccc2oc3nc(N)c(C(=O)O)cc3c(=O)c2c1 [Amlexanox, 2-amino-7-isopropyl-5-oxo-5H-[1]benzopyrano [2,3-b]-pyridine-3-carboxylic acid] the “IL6 expression, control ratio” value [1] was 32.99%, the “MMP13 expression, control ratio” value [2] was 43.83% and the “ADAMTS4 expression, control ratio” value [3] was 42.04%. The “OARSI score, control group ratio” value [4] was 56.95%, the “half-life in joint fluid / in the joint” value [5] was “several hours” and the “GRK5 inhibition (selectivity, in words)” value [6] was “selectively inhibits GRK5”.
